What is called IC50 is the concentration that inhibits the measured activity by half.

In experiment [1] the test system is secretion of TNF-α in THP-1 cells. Description: TNF-α secretion in THP-1 cells (LPS-triggered). It is filed as cell-based, human. Particulars: LPS 0.05 μg/ml, read-out: IC50 with respect to the secretion of TNF-α in THP-1 cells. How it is done:
TNF-α Secretion in THP-1 Cells
With the aid of this test, it is possible to test substances for their ability to inhibit secretion of TNF-α (tumour necrosis factor alpha) in THP-1 cells (human monocytic acute leukaemia cell line). TNF-α is a cytokine involved in inflammatory processes. In this test, TNF-α secretion is triggered by incubation with bacterial lipopolysaccharide (LPS).
THP-1 cells are kept in continuous suspension cell culture [RPMI 1460 medium with L-Glutamax (Gibco, Cat No. 61870-044) supplemented with foetal calf serum (FCS) 10% (Invitrogen, Cat No. 10082-147), 1% penicillin/streptomycin (Gibco BRL, Cat No. 15140-114)] and should not exceed a cell concentration of 1×10^6 cells/ml. The assay is carried out in cell culture medium (RPMI 1460 medium with L-Glutamax supplemented with FCS 10%).
In each case 2-2.5 μl of the cell suspension (corresponds to 4000 cells) per well were dispensed into a 384-well test plate (Greiner, Cat No. 784076), in each of which 40-50 nl substance had been dissolved in 100% DMSO. This was done using […] in the range from 20 μM to 0.073 nM for each substance. The cells were incubated at room temperature for 15 min. 2-2.5 μl of 0.1 μg/ml LPS (Sigma, Escherichia coli 055:B5, Cat. No. L5418) dissolved in cell culture medium (final concentration 0.05 μg/ml) were then dispensed into each well. As neutral control, cells were treated with 0.05 μg/ml LPS and 1% DMSO and, as inhibitor control, with 1% DMSO only.
The plates were centrifuged at 80 g for 30 s and incubated at 37° C., 5% CO2 and 95% atmospheric humidity for 17 h. The amount of TNF-α was determined using the TNF-alpha HTRF Detection Kit (Cisbio, Cat No. 62TNFPEB/C). To this end, 2 μl of the detection solution in each case, consisting of anti-TNF-α-XL665 conjugate and anti-TNF-α-cryptate conjugate dissolved in the reconstitution buffer in accordance with the manufacturer's instructions, were added for the HTRF (Homogeneous Time-Resolved Fluorescence) test. After the addition, the mixture was incubated either at room temperature for 3 h or at 4° C. overnight. The signals were then read at 620/665 nm using an HTRF-enabled measuring instrument such as the BMG PheraStar.
The activity of the substances is expressed as the ratio between neutral and inhibitor control in percent. The IC50 values were calculated using a 4-parameter fit.

Another experiment deals with human IRAK4 (Homo sapiens (Human), UniProt Q9NWZ3). As to the kind of experiment: IRAK4 kinase assay (IRAK4 TR-FRET assay). Format: biochemical. Particulars: 1 mM ATP. The essentials: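 GST-human IRAK4 (insect-cell expressed, ~0.2 nM) was prebound 15 min with compound, then reacted 45 min at 22° C with 1 mM ATP and 0.5 μM biotinylated peptide in HEPES pH 7.5. Phosphopeptide detected by TR-FRET (665/620 nm). IC50 from 4-parameter fit over 11 concentrations, 20 μM-0.073 nM.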
human IRAK4, sequence (Q9NWZ3 whole entry): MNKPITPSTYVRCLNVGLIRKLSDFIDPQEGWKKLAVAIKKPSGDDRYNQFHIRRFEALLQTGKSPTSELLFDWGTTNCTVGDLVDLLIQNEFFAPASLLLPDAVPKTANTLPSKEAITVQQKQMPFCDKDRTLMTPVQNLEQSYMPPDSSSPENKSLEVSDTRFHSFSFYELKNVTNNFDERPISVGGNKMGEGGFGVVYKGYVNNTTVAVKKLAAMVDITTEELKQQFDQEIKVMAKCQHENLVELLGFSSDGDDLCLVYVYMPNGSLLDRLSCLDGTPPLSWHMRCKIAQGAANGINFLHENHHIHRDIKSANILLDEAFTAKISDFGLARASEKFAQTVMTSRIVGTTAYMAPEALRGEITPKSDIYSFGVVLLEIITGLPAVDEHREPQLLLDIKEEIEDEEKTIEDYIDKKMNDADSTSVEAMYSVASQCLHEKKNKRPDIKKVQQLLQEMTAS

The structures appear in SMILES notation. Read-outs that look alike come from different tables or passages of the source.

`CC(C)(O)c1cc2nn(C3CCNCC3)cc2cc1NC(=O)c1cccc(C(F)(F)F)n1` [Example 46, N-[6-(2-Hydroxypropan-2-yl)-2-(piperidin-4-yl)-2H-indazol-5-yl]-6-(trifluoromethyl)pyridine-2-carboxamide]: the IC50 in experiment [1] (Homo sapiens, THP-1, 17 h) turned out to be 90 nM; at human IRAK4, 3 nM.
The corresponding values for `COc1cc2nn(C3CCNCC3)cc2cc1NC(=O)c1cccc(C(F)(F)F)n1` [Example 2, N-[6-Methoxy-2-(piperidin-4-yl)-2H-indazol-5-yl]-6-(trifluoromethyl)pyridine-2-carboxamide] are 130 nM and 1 nM.
As to `CC(C)(O)c1cc2nn(C3CCS(=O)(=O)CC3)cc2cc1NC(=O)c1cccc(C(F)(F)F)n1` [Example 44, N-[2-(1,1-Dioxidotetrahydro-2H-thiopyran-4-yl)-6-(2-hydroxypropan-2-yl)-2H-indazol-5-yl]-6-(trifluoromethyl)pyridine-2-carboxamide], the IC50 turned out to be 170 nM in experiment [1] (Homo sapiens, THP-1, 17 h) and 5 nM at human IRAK4.
The like results for `COc1cc2nn(C3CC[S+]([O-])CC3)cc2cc1NC(=O)c1cccc(C(F)(F)F)n1` (racemic) [Example 12, rac-N-[6-Methoxy-2-(1-oxidotetrahydro-2H-thiopyran-4-yl)-2H-indazol-5-yl]-6-(trifluoromethyl)pyridine-2-carboxamide] were, in that order, 100 nM and 2 nM.
In the case of `COc1cc2nn(C3CCN(C4COC4)CC3)cc2cc1NC(=O)c1cccc(C(F)(F)F)n1` [Example 10, N-{6-Methoxy-2-[1-(oxetan-3-yl)piperidin-4-yl]-2H-indazol-5-yl}-6-(trifluoromethyl)pyridine-2-carboxamide], the IC50 in experiment [1] (Homo sapiens, THP-1, 17 h) was found to be 170 nM; against human IRAK4, 3 nM.
The corresponding values for `COc1cc2nn([C@@H]3C[C@@H]4C[C@H]3CN4C)cc2cc1NC(=O)c1cccc(C(F)(F)F)n1` (relative stereo) [Example 18, rel-N-{6-Methoxy-2-[(1S,4S,5R)-2-methyl-2-azabicyclo[2.2.1]hept-5-yl]-2H-indazol-5-yl}-6-(trifluoromethyl)pyridine-2-carboxamide] are 60 nM and 2 nM.
The like results for `COc1cc2nn(C3CCOCC3)cc2cc1NC(=O)c1cccc(N2CCOCC2)n1` [Example 24, N-[6-Methoxy-2-(tetrahydro-2H-pyran-4-yl)-2H-indazol-5-yl]-6-(morpholin-4-yl)pyridine-2-carboxamide] were, in that order, 170 nM and 2 nM.
Take `COc1cc2nn(C3CCS(=N)(=O)CC3)cc2cc1NC(=O)c1cccc(C(F)(F)F)n1` (single isomer, unassigned) [Example 20, N-[2-(1-Imino-1-oxidohexahydro-1λ^4-thiopyran-4-yl)-6-methoxy-2H-indazol-5-yl]-6-(trifluoromethyl)pyridine-2-carboxamide]: the IC50 in experiment [1] (17 h) worked out at 60 nM; on human IRAK4 it was 4 nM.
Take `COc1cc2nn(C3CCOCC3)cc2cc1NC(=O)c1cccc(C(C)(C)O)n1` [Example 28, 6-(2-Hydroxypropan-2-yl)-N-[6-methoxy-2-(tetrahydro-2H-pyran-4-yl)-2H-indazol-5-yl]pyridine-2-carboxamide]: the IC50 in experiment [1] (Homo sapiens, THP-1, 17 h) worked out at 410 nM; against human IRAK4, 3 nM.
As for `COc1cc2nn(C3CCS(=N)(=O)CC3)cc2cc1NC(=O)c1cccc(C(F)(F)F)n1` (single isomer, unassigned) [Example 21, N-[2-(1-Imino-1-oxidohexahydro-1λ^4-thiopyran-4-yl)-6-methoxy-2H-indazol-5-yl]-6-(trifluoromethyl)pyridine-2-carboxamide], the IC50 was 170 nM in experiment [1] (17 h) and 3 nM against human IRAK4.
`COc1cc2nn(C3CCN(CCO)CC3)cc2cc1NC(=O)c1cccc(C(F)(F)F)n1` [Example 13, N-{2-[1-(2-Hydroxyethyl)piperidin-4-yl]-6-methoxy-2H-indazol-5-yl}-6-(trifluoromethyl)pyridine-2-carboxamide]: the IC50 came to 140 nM in experiment [1] (Homo sapiens, THP-1, 17 h) and 1 nM against human IRAK4.
The like results for `COc1cc2nn(C3CCN(C(=O)CO)CC3)cc2cc1NC(=O)c1cccc(C(F)(F)F)n1` [Example 5, N-[2-(1-Glycoloylpiperidin-4-yl)-6-methoxy-2H-indazol-5-yl]-6-(trifluoromethyl)pyridine-2-carboxamide] were, in that order, 210 nM and 2 nM.
The like results for `COc1cc2nn(C3CCOCC3)cc2cc1NC(=O)c1cccc(C(F)(F)F)n1` [Example 1, N-[6-Methoxy-2-(tetrahydro-2H-pyran-4-yl)-2H-indazol-5-yl]-6-(trifluoromethyl)pyridine-2-carboxamide] were, in that order, 210 nM and 3 nM.
Take `COc1cc2nn(C3CCOCC3)cc2cc1NC(=O)c1cccc(C(F)F)n1` [Example 23, 6-(Difluoromethyl)-N-[6-methoxy-2-(tetrahydro-2H-pyran-4-yl)-2H-indazol-5-yl]pyridine-2-carboxamide]: the IC50 in experiment [1] (Homo sapiens, THP-1, 17 h) is 230 nM; on human IRAK4, 1 nM.
As to `COc1cc2nn(C3CCN(C)CC3)cc2cc1NC(=O)c1cccc(C(F)(F)F)n1` [Example 4, N-[6-Methoxy-2-(1-methylpiperidin-4-yl)-2H-indazol-5-yl]-6-(trifluoromethyl)pyridine-2-carboxamide], the IC50 turned out to be 140 nM in experiment [1] (Homo sapiens, THP-1, 17 h) and 1 nM at human IRAK4.

The values are drawn from patent US10435396B2, “2-substituted indazoles, methods for producing same, pharmaceutical preparations that contain same, and use of same to produce drugs” (Bayer Pharma Aktiengesellschaft, priority 2016, dated 2019).
